# Laboratory results reported in PMC11669383, “Modulating Liposome Surface Charge for Maximized ATP Regeneration in Synthetic Nanovesicles” (ACS Synthetic Biology, 2024).
# B1: NADH dehydrogenase II (NDH-2) (Escherichia coli K-12) (protein)
# chain: TTPLKKIVIVGGGAGGLEMATQLGHKLGRKKKAKITLVDRNHSHLWKPLLHEVATGSLDEGVDALSYLAHARNHGFQFQLGSVIDIDREAKTITIAELRDEKGELLVPERKIAYDTLVMALGSTSNDFNTPGVKENCIFLDNPHQARRFHQEMLNLFLKYSANLGANGKVNIAIVGGGATGVELSAELHNAVKQLHSYGYKGLTNEALNVTLVEAGERILPALPPRISAAAHNELTKLGVRVLTQTMVTSADEGGLHTKDGEYIEADLMVWAAGIKAPDFLKDIGGLETNRINQLVVEPTLQTTRDPDIYAIGDCASCPRPEGGFVPPRAQAAHQMATCAMNNILAQMNGKPLKNYQYKDHGSLVSLSNFSTVGSLMGNLTRGSMMIEGRIARFVYISLYRMHQIALHGYFKTGLMMLVGSINRVIRPRLKLH
# notes: 45 kDa peripheral membrane protein with FAD
# Assays:
# Assay in all cases: coupled ATP synthesis in proteoliposomes, luciferase luminescence
# [1] = target: T1, quinone-fumarate oxidoreductase (FRD) (Escherichia coli, UniProt P00363); format: biochemical
# T1 construct: gene frdA; coreconstituted in liposomes; with Fumarate reductase iron-sulfur subunit; Fumarate reductase subunit C; Fumarate reductase subunit D
# T1 sequence (P00363 2-602, other chains not shown): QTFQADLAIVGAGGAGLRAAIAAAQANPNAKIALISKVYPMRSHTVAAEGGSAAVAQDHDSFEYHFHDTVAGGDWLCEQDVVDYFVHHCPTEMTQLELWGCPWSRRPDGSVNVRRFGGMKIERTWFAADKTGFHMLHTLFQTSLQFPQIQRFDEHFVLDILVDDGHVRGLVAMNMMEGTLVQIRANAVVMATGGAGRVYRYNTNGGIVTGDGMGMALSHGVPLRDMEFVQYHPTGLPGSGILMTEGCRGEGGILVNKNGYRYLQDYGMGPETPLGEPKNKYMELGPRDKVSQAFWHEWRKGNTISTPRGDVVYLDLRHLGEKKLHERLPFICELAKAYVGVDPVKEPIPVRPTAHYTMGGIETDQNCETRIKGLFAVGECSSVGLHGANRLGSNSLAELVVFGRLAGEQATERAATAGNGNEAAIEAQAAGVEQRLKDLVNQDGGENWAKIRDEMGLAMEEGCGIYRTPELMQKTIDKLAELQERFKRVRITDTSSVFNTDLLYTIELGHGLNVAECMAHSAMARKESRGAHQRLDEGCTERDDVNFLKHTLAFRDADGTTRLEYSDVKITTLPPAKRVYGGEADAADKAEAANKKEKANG
# T1 sequence (P0AC47 2-244 partner, other chains not shown): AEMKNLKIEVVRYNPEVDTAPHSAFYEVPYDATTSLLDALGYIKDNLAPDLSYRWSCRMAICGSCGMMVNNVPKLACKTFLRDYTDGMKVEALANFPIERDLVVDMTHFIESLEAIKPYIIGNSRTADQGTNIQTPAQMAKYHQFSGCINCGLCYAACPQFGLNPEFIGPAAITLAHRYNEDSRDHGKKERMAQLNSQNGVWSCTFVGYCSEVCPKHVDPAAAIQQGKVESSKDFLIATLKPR
# T1 sequence (P0A8Q0 whole entry partner, other chains not shown): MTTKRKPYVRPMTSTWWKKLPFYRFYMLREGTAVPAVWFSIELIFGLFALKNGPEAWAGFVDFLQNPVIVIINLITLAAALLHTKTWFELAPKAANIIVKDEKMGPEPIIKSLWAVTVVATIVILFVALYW
# [2] = target: T1, quinone-fumarate oxidoreductase (FRD); format: biochemical; conditions: bo3 oxidase and ATP synthase coreconstituted in E. coli polar lipid liposomes, 2 mol % ubiquinone Q8, succinate 1-2000 μM, pH 7.5, read-out is the coupled rate, read-out: apparent KM
# [3] = substrate: NC(=O)C1=CN([C@@H]2O[C@H](COP(=O)(O)OP(=O)(O)OC[C@H]3O[C@@H](n4cnc5c(N)ncnc54)[C@H](O)[C@@H]3O)[C@@H](O)[C@H]2O)C=CC1; format: biochemical, Escherichia coli; conditions: NDH-2 added to liposomes with bo3 oxidase, FRD and ATP synthase, 2 mol % ubiquinone Q8, NADH 5-200 μM, pH 7.5, read-out is the coupled rate
molecule,measurement,setting,value
O=C(O)CC(=O)O [malonate],"coupled ATP synthesis in proteoliposomes, luciferase luminescence",[1],The reaction was sensitive to the complex II inhibitor malonate.
O=C(O)CCC(=O)O [succinate],Km,[2],62.2 µM
B1,Km,[3],18.5 µM
